Experimental data: US11192891B2, “Diazaspiro ROCK inhibitors” (BRISTOL-MYERS SQUIBB COMPANY, priority 2017, dated 2021)

Target: ROCK2 (Homo sapiens, UniProt O75116)
Assay: ROCK kinase inhibition assay, FITC peptide substrate, LABCHIP 3000 readout
Format: biochemical
Details: 5 μM ATP, 1.5 μM peptide substrate
Experimental: Compounds were dissolved in DMSO so that the final concentration of DMSO was <2%, and the reaction was initiated with Rho kinase variants. After incubation, the reaction was terminated by the addition of EDTA and the phosphorylated and non-phosphorylated peptides separated using a LABCHIP® 3000 Reader (Caliper Life Sciences). […] Compounds were tested in dose-response format, and the inhibition of kinase activity was calculated at each concentration of compound.

Chain of ROCK2 (O75116 whole entry, species assumed): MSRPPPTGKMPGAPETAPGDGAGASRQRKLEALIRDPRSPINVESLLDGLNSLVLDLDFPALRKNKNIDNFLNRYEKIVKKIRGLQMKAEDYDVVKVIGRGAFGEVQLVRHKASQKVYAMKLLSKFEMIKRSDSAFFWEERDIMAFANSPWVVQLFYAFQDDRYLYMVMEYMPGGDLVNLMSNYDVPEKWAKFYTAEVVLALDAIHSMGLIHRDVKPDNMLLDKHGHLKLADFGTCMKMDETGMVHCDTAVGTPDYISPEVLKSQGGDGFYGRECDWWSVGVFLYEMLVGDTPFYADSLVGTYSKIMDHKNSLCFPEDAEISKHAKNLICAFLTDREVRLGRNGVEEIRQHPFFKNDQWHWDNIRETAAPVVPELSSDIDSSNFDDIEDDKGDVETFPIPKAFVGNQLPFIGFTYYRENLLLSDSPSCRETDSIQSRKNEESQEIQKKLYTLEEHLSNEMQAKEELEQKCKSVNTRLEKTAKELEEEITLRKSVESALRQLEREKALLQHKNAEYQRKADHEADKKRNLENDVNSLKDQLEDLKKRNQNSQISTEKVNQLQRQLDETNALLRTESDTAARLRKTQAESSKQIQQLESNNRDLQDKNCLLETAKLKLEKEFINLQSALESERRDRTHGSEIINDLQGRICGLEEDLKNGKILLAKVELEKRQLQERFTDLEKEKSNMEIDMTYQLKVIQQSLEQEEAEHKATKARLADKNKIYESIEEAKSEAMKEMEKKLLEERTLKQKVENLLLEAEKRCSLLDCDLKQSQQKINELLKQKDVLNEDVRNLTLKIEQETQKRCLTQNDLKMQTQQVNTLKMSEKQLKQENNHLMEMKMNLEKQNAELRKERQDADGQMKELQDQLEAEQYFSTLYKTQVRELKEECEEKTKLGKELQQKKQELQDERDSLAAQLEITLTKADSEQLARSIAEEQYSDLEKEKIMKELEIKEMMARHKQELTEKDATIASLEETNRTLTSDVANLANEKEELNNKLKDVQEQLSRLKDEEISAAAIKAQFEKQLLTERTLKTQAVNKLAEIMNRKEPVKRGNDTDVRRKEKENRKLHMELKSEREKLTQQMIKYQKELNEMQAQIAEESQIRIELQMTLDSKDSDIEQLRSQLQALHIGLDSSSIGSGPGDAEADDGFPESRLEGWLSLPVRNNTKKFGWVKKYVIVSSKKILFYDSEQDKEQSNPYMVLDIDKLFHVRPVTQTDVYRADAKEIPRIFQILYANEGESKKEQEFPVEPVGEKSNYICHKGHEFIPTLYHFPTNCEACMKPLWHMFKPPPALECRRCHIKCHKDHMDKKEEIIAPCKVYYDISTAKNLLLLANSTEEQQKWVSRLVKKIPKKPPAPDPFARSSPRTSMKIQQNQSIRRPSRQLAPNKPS

Compound | IC50 [µM] | EC50 [µM]
COc1cc(N2CCC3(CCN(C(=O)c4cccc(C(F)(F)F)c4)CC3)C2=O)ccc1-c1cn[nH]c1 [Example 58, 2-[3-methoxy-4-(1H-pyrazol-4-yl)phenyl]-8-[3-(trifluoromethyl)benzoyl]-2,8-diazaspiro[4.5]decan-1-one] | 0.144 | –
O=C(c1ccccc1)N1CCC2(CCN(c3ccc(-c4cn[nH]c4)cc3)C2=O)C1 (stereo not drawn) [Example 42, 7-benzoyl-2-[4-(1H-pyrazol-4-yl)phenyl]-2,7-diazaspiro[4.4]nonan-1-one] | 1.22 | –
COc1cc(N2CCC3(CCN(C(=O)c4cc(C)cs4)CC3)C2=O)ccc1-c1cn[nH]c1 [Example 82, 2-[3-methoxy-4-(1H-pyrazol-4-yl)phenyl]-8-(4-methylthiophene-2-carbonyl)-2,8-diazaspiro[4.5]decan-1-one] | 0.109 | –
COc1ccc(C(=O)N2CCC3(CCN(c4ccc(-c5cn[nH]c5)cc4)C3=O)C2)cc1 (stereo not drawn) [Example 45, 7-(4-methoxybenzoyl)-2-[4-(1H-pyrazol-4-yl)phenyl]-2,7-diazaspiro[4.4]nonan-1-one] | 0.18 | –
CN1CCN(c2ccc(C(=O)N3CCC4(CC3)CCN(c3ccc(-c5ccc6[nH]ncc6c5)cc3)C4=O)cc2)CC1 [Example 37, 2-[4-(1H-indazol-5-yl)phenyl]-8-[4-(4-methylpiperazin-1-yl)benzoyl]-2,8-diazaspiro[4.5]decan-1-one] | 0.0005 | –
CN1CCN(c2ccc(C(=O)N3CCC4(CC3)CCN(c3cccc(-c5ccc6[nH]ncc6c5)c3)C4=O)cc2)CC1 [Example 51, 2-[3-(1H-indazol-5-yl)phenyl]-8-[4-(4-methylpiperazin-1-yl)benzoyl]-2,8-diazaspiro[4.5]decan-1-one] | 0.014 | –
COc1cc(N2CCC3(CCN(C(=O)c4ccc(Cl)cc4)CC3)C2=O)ccc1-c1cn[nH]c1 [Example 18, 8-(4-Chlorobenzoyl)-2-[3-methoxy-4-(1H-pyrazol-4-yl)phenyl]-2,8-diazaspiro[4.5]decan-1-one] | 0.062 | –
COc1cc(N2CCC3(CCN(C(=O)c4ccc(C(N)=O)cc4)CC3)C2=O)ccc1-c1cn[nH]c1 [Example 23, 4-{2-[3-methoxy-4-(1H-pyrazol-4-yl)phenyl]-1-oxo-2,8-diazaspiro[4.5]decane-8-carbonyl}benzamide] | 0.036 | –
COc1cccc(C(=O)N2CCC3(CC2)CN(c2ccc(-c4cn[nH]c4)cc2)C3=O)c1 [Example 41, 7-(3-methoxybenzoyl)-2-[4-(1H-pyrazol-4-yl)phenyl]-2,7-diazaspiro[3.5]nonan-1-one] | 0.285 | –
COc1cc(F)ccc1C(=O)N1CCC2(CC1)CCN(c1ccc(-c3cn[nH]c3)cc1)C2=O [Example 9, 8-(4-fluoro-2-methoxybenzoyl)-2-[4-(1H-pyrazol-4-yl)phenyl]-2,8-diazaspiro[4.5]decan-1-one] | 0.241 | –
COc1cc(N2CCC3(CCN(C(=O)c4ccc(S(N)(=O)=O)cc4)CC3)C2=O)ccc1-c1cn[nH]c1 [Example 55, 4-{2-[3-methoxy-4-(1H-pyrazol-4-yl)phenyl]-1-oxo-2,8-diazaspiro[4.5]decane-8-carbonyl}benzene-1-sulfonamide] | 0.096 | –
COc1ccc(C(=O)N2CCC3(CC2)CCN(c2ccc(-c4cn[nH]c4)c(OC)n2)C3=O)cc1 [Example 39, 2-[6-methoxy-5-(1H-pyrazol-4-yl)pyridin-2-yl]-8-(4-methoxybenzoyl)-2,8-diazaspiro[4.5]decan-1-one] | 0.004 | –
CN1CCN(c2ccc(C(=O)N3CCC4(CC3)CCN(c3ccc(-c5cn[nH]c5)cc3)C4=O)cc2)CC1 [Example 31, 8-[4-(4-methylpiperazin-1-yl)benzoyl]-2-[4-(1H-pyrazol-4-yl)phenyl]-2,8-diazaspiro[4.5]decan-1-one] | 0.0007 | –
COc1ccc(C(=O)N2CCC3(CC2)CCN(c2ccc(-c4cn[nH]c4)cc2)C3=O)cc1F [Example 11, 8-(3-fluoro-4-methoxybenzoyl)-2-[4-(1H-pyrazol-4-yl)phenyl]-2,8-diazaspiro[4.5]decan-1-one] | – | 0.016

The remaining lines, values ahead:

IC50 [µM] | EC50 [µM] | Compound
0.003 | – | COc1cc(N2CCC3(CCN(C(=O)c4cc(C)n5nc[nH]c(=O)c45)CC3)C2=O)ccc1-c1cn[nH]c1 [Example 132, 2-[3-methoxy-4-(1H-pyrazol-4-yl)phenyl]-8-{7-methyl-4-oxo-3H,4H-pyrrolo[2,1-f][1,2,4]triazine-5-carbonyl}-2,8-diazaspiro[4.5]decan-1-one]
0.01 | – | COc1cc(N2CCC3(CCN(C(=O)c4ccc(-c5cncnc5)cc4)CC3)C2=O)ccc1-c1cn[nH]c1 [Example 135, 2-[3-methoxy-4-(1H-pyrazol-4-yl)phenyl]-8-[4-(pyrimidin-5-yl)benzoyl]-2,8-diazaspiro[4.5]decan-1-one]
0.037 | – | COc1cc(N2CCC3(CCN(C(=O)c4ccc(-c5nc(C)no5)cc4)CC3)C2=O)ccc1-c1cn[nH]c1 [Example 185, 2-[3-methoxy-4-(1H-pyrazol-4-yl)phenyl]-8-[4-(3-methyl-1,2,4-oxadiazol-5-yl)benzoyl]-2,8-diazaspiro[4.5]decan-1-one]
0.023 | – | COc1cc(N2CCC3(CCN(C(=O)c4ccc(Cn5ccnc5)cc4)CC3)C2=O)ccc1-c1cn[nH]c1 [Example 183, 8-{4-[(1H-imidazol-1-yl)methyl]benzoyl}-2-[3-methoxy-4-(1H-pyrazol-4-yl)phenyl]-2,8-diazaspiro[4.5]decan-1-one]
1.02 | – | COc1cc(N2CCC3(CCN(C(=O)c4ccc(-c5nn[nH]n5)cc4)CC3)C2=O)ccc1-c1cn[nH]c1 [Example 143, 2-[3-methoxy-4-(1H-pyrazol-4-yl)phenyl]-8-[4-(2H-1,2,3,4-tetrazol-5-yl)benzoyl]-2,8-diazaspiro[4.5]decan-1-one]
0.078 | – | COc1cc(N2CCC3(CCN(C(=O)c4ccc(Oc5ncccn5)cc4)CC3)C2=O)ccc1-c1cn[nH]c1 [Example 105, 2-[3-methoxy-4-(1H-pyrazol-4-yl)phenyl]-8-[4-(pyrimidin-2-yloxy)benzoyl]-2,8-diazaspiro[4.5]decan-1-one]
0.007 | – | COc1cc(N2CCC3(CCN(C(=O)c4ccc(-n5ccccc5=O)cc4)CC3)C2=O)ccc1-c1cn[nH]c1 [Example 117, 2-[3-methoxy-4-(1H-pyrazol-4-yl)phenyl]-8-[4-(2-oxo-1,2-dihydropyridin-1-yl)benzoyl]-2,8-diazaspiro[4.5]decan-1-one]
0.0021 | – | COc1cc(N2CCC3(CCN(C(=O)c4cc(C(C)C)n5ncnc(O)c45)CC3)C2=O)ccc1-c1cn[nH]c1 [Example 200, 8-[4-hydroxy-7-(propan-2-yl)pyrrolo[2,1-f][1,2,4]triazine-5-carbonyl]-2-[3-methoxy-4-(1H-pyrazol-4-yl)phenyl]-2,8-diazaspiro[4.5]decan-1-one]
0.026 | – | COc1cc(N2CCC3(CCN(C(=O)c4ccc5ncsc5c4)CC3)C2=O)ccc1-c1cn[nH]c1 [Example 83]
0.094 | – | COc1cc(N2CCC3(CCN(C(=O)c4ccc5c(c4)CNC5=O)CC3)C2=O)ccc1-c1cn[nH]c1 [Example 144, 2-[3-methoxy-4-(1H-pyrazol-4-yl)phenyl]-8-(1-oxo-2,3-dihydro-1H-isoindole-5-carbonyl)-2,8-diazaspiro[4.5]decan-1-one]
0.427 | – | COc1cc(N2CCC3(CCN(C(=O)c4ccno4)CC3)C2=O)ccc1-c1cn[nH]c1 [Example 97, 2-[3-methoxy-4-(1H-pyrazol-4-yl)phenyl]-8-(1,2-oxazole-5-carbonyl)-2,8-diazaspiro[4.5]decan-1-one]
0.001 | – | COc1cc(N2CCC3(CCN(C(=O)c4ccc(N5CCN(Cc6cccnc6)CC5)cc4)CC3)C2=O)ccc1-c1cn[nH]c1 [Example 243, 2-[3-methoxy-4-(1H-pyrazol-4-yl)phenyl]-8-(4-{4-[(pyridin-3-yl)methyl]piperazin-1-yl}benzoyl)-2,8-diazaspiro[4.5]decan-1-one]
0.04 | – | COc1cc(N2CCC3(CCN(C(=O)c4ccc5ccn(C)c5c4)CC3)C2=O)ccc1-c1cn[nH]c1 [Example 155, 2-[3-methoxy-4-(1H-pyrazol-4-yl)phenyl]-8-(1-methyl-1H-indole-6-carbonyl)-2,8-diazaspiro[4.5]decan-1-one]
0.054 | – | COc1cc(N2CCC3(CCN(C(=O)c4ccc(-n5cncn5)nc4)CC3)C2=O)ccc1-c1cn[nH]c1 [Example 145, 2-[3-methoxy-4-(1H-pyrazol-4-yl)phenyl]-8-[6-(1H-1,2,4-triazol-1-yl)pyridine-3-carbonyl]-2,8-diazaspiro[4.5]decan-1-one]
0.585 | – | COc1cc(N2CCC3(CCN(C(=O)c4cnc(C)nc4)CC3)C2=O)ccc1-c1cn[nH]c1 [Example 121, 2-[3-methoxy-4-(1H-pyrazol-4-yl)phenyl]-8-(2-methylpyrimidine-5-carbonyl)-2,8-diazaspiro[4.5]decan-1-one]
0.0007 | – | COc1cc(N2CCC3(CCN(C(=O)c4ccc(N5CCN(C6CCCCC6)CC5)cc4)CC3)C2=O)ccc1-c1cn[nH]c1 [Example 226, 8-[4-(4-cyclohexylpiperazin-1-yl)benzoyl]-2-[3-methoxy-4-(1H-pyrazol-4-yl)phenyl]-2,8-diazaspiro[4.5]decan-1-one]
0.027 | – | COc1cc(N2CCC3(CCN(C(=O)c4cc(C)[nH]n4)CC3)C2=O)ccc1-c1cn[nH]c1 [Example 187, 2-[3-methoxy-4-(1H-pyrazol-4-yl)phenyl]-8-(5-methyl-1H-pyrazole-3-carbonyl)-2,8-diazaspiro[4.5]decan-1-one]
0.031 | – | COc1cc(N2CCC3(CCN(C(=O)c4cc(C)n(C)n4)CC3)C2=O)ccc1-c1cn[nH]c1 [Example 188, 8-(1,5-dimethyl-1H-pyrazole-3-carbonyl)-2-[3-methoxy-4-(1H-pyrazol-4-yl)phenyl]-2,8-diazaspiro[4.5]decan-1-one]
0.061 | – | COc1cc(N2CCC3(CCN(C(=O)c4cccc5[nH]cnc45)CC3)C2=O)ccc1-c1cn[nH]c1 [Example 197, 8-(1H-1,3-benzodiazole-4-carbonyl)-2-[3-methoxy-4-(1H-pyrazol-4-yl)phenyl]-2,8-diazaspiro[4.5]decan-1-one]
